Where no end group is shown, it is not given here.
Tests used:
mouse red blood cells = experiment: Hemolytic activity; assay type: cell-based; conditions: 8% mouse RBCs in PBS, 37 °C, 1 h, A414, triplicate
Experimental: The hemolytic activities of the peptides were determined as previously described. Fresh mouse red blood cells (RBCs) were washed and diluted to 8% with PBS. RBC suspension was added to 96-well plates (100 µL/well), mixed with an equal volume of serially diluted peptides, and incubated at 37 °C for 1 h with gentle shaking. The plate was centrifuged and the supernatant was transferred to a 96-well plate. The absorbance at 414 nm was measured with a Versa-Max ELISA reader (Molecular Devices). PBS and 0.1% Triton X-100 were used as negative and positive controls, respectively. The experiment was performed in triplicate. The hemolysis rate was calculated using the following formula[55]: % Hemolysis = [(Abs 414 nm in the peptide solution-Abs 414 nm in PBS)/(Abs 414 nm in 0.1% Triton X-100-Abs 414 nm in PBS)] × 100

mammalian cells = conditions: at concentrations below 50 µM; cited from earlier work
Experimental: In a previous study, Hp1404 was purified from the venomous gland of the scorpion Heterometrus petersii. […] Moreover, it is not toxic to mammalian cells at concentrations below 50 µM[20].

trypsin = experiment: Trypsin stability assay; assay type: in vitro ADME; conditions: trypsin (25 nM) in sodium phosphate buffer, 20 µg peptide in 100 µL 10 mM sodium phosphate buffer pH 7.4 with 25 nM trypsin, 37 °C, RP-HPLC peak area of native peptide (C18), repeated three times, read-out: remaining peptide after trypsin treatment
Experimental: Each sample with trypsin was analysed by RT-HPLC on a Jupiter C18 column (4.6 × 250 mm, 300 Å, 5 µm; Phenomenex). Stability was expressed as the percentage of remaining peptide, which in turn was determined by comparing the HPLC peak areas, corresponding to the peak detected for the native peptide, before and after trypsin treatment. […]
(§1) released calcein was measured at an excitation wavelength of 480 nm and an emission […]
Trypsin stability assay. Peptides were treated with trypsin, and results were ev aluated usin g RP-HP LC, as described previously3. Briefly, 20 µ g of peptide was mixed with 100 µ L of 10 mM sodium phosphate buffer (pH 7.4) containing 25 nM trypsin (Sigma-Aldrich), and incubated at 37 °C for 1 h or 2 h. A fter incubation, 20 µL of each sampl e was anal ysed b y RT-HP LC on a J upiter C18 column (4.6 × 250 m m, 300 Å, 5 µm; Phenomenex).
(§2) PI uptake assay. Bacteri al membrane damage was assessed through monitoring the changes in fluorescence generated by the propidium iodide (P I) dye, as described previousl y4. Briefl y, P. aeruginosa ATCC 27853 was grown in NB to logarithmic phase of growth, and then diluted to OD600 = 0.25 in 10 mM sodium phosphate (pH 7.2) buffer with 10 % medium. […] PI fluorescence was monitored at an excitation wavelength of 580 nm and emission wavelength of 620 nm, using a micropl ate reader (Molecular Devices Co., Sunnyvale, CA, USA), during 30 min.

[1] = Calcein leakage assay, PC:CH:SM LUVs; conditions: PC:CH:SM (1:1:1, w/w) LUVs mimicking mammalian cell membranes (Fig. S4)
Excerpt: Peptide synthesis and purification. The peptides were s ynthesized using the solid- phase-9-fluorenylmethoxycarbonyl (Fmoc) method, as reported previously1, on a Rink amide 4-methylbenzhydrylamine resin, using a Liberty microwave peptide synthesizer (CEM, Matthews, NY, USA). The following chemicals were us ed as linkage reagents: 0.45 M 2- (1H - benzotriazole-1- yil)-1,1,3,3- tetramethyluronium hexafluorophosphate (HBTU) diluted in dimethylformamide (DMF), 0.1 M N -hydroxybenzotriazole (HOBt) diluted in piperidine/DMF, and 2 M N ,N -diisopropyleth ylamine (DIEA) diluted in N -methylp yrrolidone (NMP). […]
(§3) Ti me -killing assay. […] After an 18- h incubation, the colonies were counted and aver age counts wer e determined.
(§4) Calcein leakage assay. […] The fluorescence generated from the […]
as §1
as §2, with “y4.” for “y4. Briefl y, P. aeruginosa ATCC 27853 was grown in NB to logarithmic phase of growth, and then diluted to OD600 = 0.25 in 10 mM sodium phosphate (pH 7.2) buffer with 10 % medium.”

P. aeruginosa ATCC 27853 = experiment: Time-killing assay; assay type: cell-based, Pseudomonas aeruginosa; conditions: at 2 hours; 2× MIC, P. aeruginosa ATCC 27853, 2 × 10^5 CFU/mL, colony counts in triplicate
Excerpt: Peptide synthesis and purification. The peptides were s ynthesized using the solid- phase-9-fluorenylmethoxycarbonyl (Fmoc) method, as reported previously1, on a Rink amide 4-methylbenzhydrylamine resin, using a Liberty microwave peptide synthesizer (CEM, Matthews, NY, USA). The following chemicals were us ed as linkage reagents: 0.45 M 2- (1H - benzotriazole-1- yil)-1,1,3,3- tetramethyluronium hexafluorophosphate (HBTU) diluted in dimethylformamide (DMF), 0.1 M N -hydroxybenzotriazole (HOBt) diluted in piperidine/DMF, and 2 M N ,N -diisopropyleth ylamine (DIEA) diluted in N -methylp yrrolidone (NMP). After washing with dichloromethane (DCM), cleavage was performed by incubating for 2 h at 25 °C in a trifluoroacetic acid (TFA) solution containing water, phenol, and triisopropylsilane. The crude peptide was precipitated by dilution with ice-cold diethyl ether, then spread on the tube wall, and dried. After resuspension in 25 °C water, the peptide was purified by reversed phase high- performance liquid chromatograph y (RP-HP LC) on a Jupiter C18 column (4.6 × 250 mm, 300 Å, 5 µm; Phenomenex, Torrance, CA, USA). […]
as §3, §4

| Substance | hemolysis rate (mouse red blood cells; 12.5 µM) [%] | hemolysis rate (mouse red blood cells; 25 µM) [%] | hemolysis rate (mouse red blood cells; 50 µM) [%] | hemolysis rate (mouse red blood cells; 100 µM) [%] | hemolysis rate (mouse red blood cells; 200 µM) [%] | toxicity to mammalian cells (mammalian cells) | remaining at 2 h, 0.2 mg/mL (trypsin) [%] | toxicity by calcein leakage assay [1] | bacteria killed (P. aeruginosa ATCC 27853) [%] |
| --- | --- | --- | --- | --- | --- | --- | --- | --- | --- |
| GILGKLWEGVKSIF-NH2 [Hp1404] | 2 | 11 | 55 | 92 | 100 | not toxic | 50 | – | – |
| ILKKLLKKVKKI-NH2 [Hp1404-T1e] | – | – | – | – | – | – | – | not toxic | 85 |
